According to article PMC12155760, “A cobalamin-dependent pathway of choline demethylation from the human gut acetogen Eubacterium limosum [drawing 1]” (The Journal of Biological Chemistry, 2025):

How the values were obtained:
MthA = molecular target: T1, MthA (Eubacterium limosum, UniProt A0AAC9QR60); assay: HPLC, methyl-THF formation; type: biochemical; settings: 5 mM THF, MthB, MthC, RamQ, Ti(III)citrate, ATP, 50 mM phosphocholine, MOPS pH 7.0, 24 °C
T1 construct: gene B2M23_01055
T1 sequence (A0AAC9QR60 1-264): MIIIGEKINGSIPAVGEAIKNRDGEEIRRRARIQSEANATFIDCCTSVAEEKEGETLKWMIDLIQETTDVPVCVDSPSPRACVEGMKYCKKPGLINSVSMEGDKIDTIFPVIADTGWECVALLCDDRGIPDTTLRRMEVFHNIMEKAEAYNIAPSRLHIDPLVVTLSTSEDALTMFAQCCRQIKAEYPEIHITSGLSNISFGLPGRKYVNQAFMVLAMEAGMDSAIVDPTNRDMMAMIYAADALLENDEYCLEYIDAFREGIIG

MthB = assay: UV/Vis, methyl-Co(III)-MthC formation at […] nm; type: biochemical, Eubacterium limosum; settings: co-substrate 30 μM Co(I)-MthC, RamQ, Ti(III)citrate, 2 mM ATP, MOPS pH 7.2, 37 °C; read-out: apparent KM
purified protein = substrate: C[N+](C)(C)CCO; assay: purified protein; type: biochemical, Eubacterium limosum; settings: 5 mM ATP, 10 mM MgCl2, 100 mM KCl, glycine-NaOH pH 9.0

`Nc1nc2c(c(=O)[nH]1)N[C@@H](CNc1ccc(C(=O)N[C@@H](CCC(=O)O)C(=O)O)cc1)CN2` [THF] was tested. Which “HPLC, methyl-THF formation” value (MthA) did it give?
The value was “the further addition of MthA allowed the methylation of THF with phosphocholine as assayed by HPLC”.

How did the Km (MthB) turn out when `C[N+](C)(C)CCOP(=O)([O-])O` [phosphocholine] was run?
Its Km is 11.3 ± 1.9 mM.

B1: MthK (Eubacterium limosum) (protein)
chain: MVDGKFIEMQTEIMKNYPPANAQALLNIFNAASGMQEYLDNVLAKTRESYLYTQLRDLVENYYDIGTLLDVYQIFGGYINTSFGIYTEKNGKKQTWFVRKYKNGKELESLLFEHSMLKYAKENGFSYGAVPIPAKDGKTYHEVTETTTEGETKSYFAVFNFVGGKAHYDWIPNWANAGVADLTVISAAKSLAEFHNSTRGFDPEGRHGDNIMDNEDITVNEIIRKFPKTLKEYRKSYAEAGFENVYTEYYDANYDYFAKMCERSVIPDVDYDTMVSNVCHCDFHPGNFKYLDNGEVCGSFDYDMAKIDSRLFELGLAIHYCFSSWLSDTNGIINLDRASLFVKTYDEELHKAGGIEPLTDIEKKYLYEVTVQGALYDLGWCSSACVYDSTLDPYEYLFYTQHFVACLKWLEANEAAFRKAFD
Which Km (purified protein) does the source give for B1 here?
Its Km is 0.0028 ± 0.0002 mM.

And the kcat (purified protein)?
Its kcat is 13.8 ± 0.28 s⁻¹.
